Where “and” joins values, the source holds several entries; their conditions need not be identical. Equal values may be shown once.
Experiment: xn = mol fraction of the nth substance listed

c1ccc(Nc2ccccc2)cc1 + CCCCCC
viscosity
Conditions | 298.15 K | 303.15 K | 308.15 K | 313.15 K | 318.15 K
101 kPa, x1 = 0.0477 | 0.3866 mPa·s | 0.3675 mPa·s | 0.3515 mPa·s | 0.3325 mPa·s | 0.3164 mPa·s
101 kPa, x1 = 0.1451 | – | 0.5085 mPa·s | 0.4768 mPa·s | 0.4472 mPa·s | 0.4182 mPa·s
101.33 kPa, x1 = 0.03537 | – | 0.352 mPa·s | – | – | 0.3079 mPa·s
101.33 kPa, x1 = 0.04767 | – | 0.3675 mPa·s | – | – | 0.3164 mPa·s
101.33 kPa, x1 = 0.0477 | 0.3866 mPa·s | 0.3675 mPa·s | 0.3515 mPa·s | 0.3325 mPa·s | 0.3164 mPa·s
101.33 kPa, x1 = 0.05985 | – | 0.3824 mPa·s | – | – | 0.3288 mPa·s
101.33 kPa, x1 = 0.1451 | – | 0.5085 mPa·s and 0.5085 mPa·s | 0.4768 mPa·s | 0.4472 mPa·s | 0.4182 mPa·s and 0.4182 mPa·s
101.33 kPa, x1 = 0.3067 | – | 1.53 mPa·s | – | – | 0.7796 mPa·s

Cc1ccc(C)cc1 + CCCO
viscosity [mPa·s], 100 kPa
Conditions | 298.15 K | 308.15 K
x2 = 0.0643 | 0.6146 | 0.5489
x2 = 0.1254 | 0.631 | 0.5619
x2 = 0.2254 | 0.6713 | 0.5956
x2 = 0.3547 | 0.7426 | 0.6389
x2 = 0.4703 | 0.8348 | 0.7071
x2 = 0.5743 | 0.9545 | 0.7925
x2 = 0.6683 | 1.058 | 0.9054
x2 = 0.7538 | 1.253 | 1.028
x2 = 0.8318 | 1.449 | 1.198
x2 = 0.9033 | 1.662 | 1.337
x2 = 0.9691 | 1.814 | 1.457

O=Cc1ccccc1 + OCc1ccccc1
293.15 K, 100 kPa
Conditions | viscosity [mPa·s]
x2 = 0.1032 | 1.695
x2 = 0.2 | 1.882
x2 = 0.3007 | 2.114
x2 = 0.4023 | 2.322
x2 = 0.4989 | 2.633
x2 = 0.6013 | 3.114
x2 = 0.688 | 3.591
x2 = 0.8 | 4.366
x2 = 0.8984 | 5.395

CCCCCCCCCCCCO + CCCCCCCCCO
viscosity [mPa·s], 101.8 kPa
Conditions | x2 = 0.1246 | x2 = 0.3557 | x2 = 0.5641 | x2 = 0.7516 | x2 = 0.9218
298.15 K | 15.91 | 14.07 | 12.49 | 11.2 | 10.02
308.15 K | 10.86 | 9.686 | 8.677 | 7.814 | 7.056
318.15 K | 7.599 | 6.831 | 6.182 | 5.591 | 5.091

Cc1ccc(C)cc1 + COC(=O)OC
298.15 K, 101.3 kPa
Conditions | viscosity [mPa·s]
x2 = 0.1097 | 0.592
x2 = 0.1824 | 0.591
x2 = 0.2345 | 0.59
x2 = 0.2757 | 0.589
x2 = 0.3294 | 0.586
x2 = 0.3683 | 0.586
x2 = 0.5137 | 0.588
x2 = 0.6046 | 0.588
x2 = 0.7164 | 0.59
x2 = 0.8442 | 0.587

CCCCCCCCN + CCOCCO
308.15 K, 101 kPa
Conditions | viscosity [mPa·s]
x2 = 0.1595 | 1.136
x2 = 0.4226 | 1.512
x2 = 0.5324 | 1.655
x2 = 0.6307 | 1.75
x2 = 0.7193 | 1.725
x2 = 0.7994 | 1.654
x2 = 0.8723 | 1.568
x2 = 0.9389 | 1.497

C[N+](C)(C)CCO.[Cl-] + NCCO
101 kPa
Conditions | viscosity [mPa·s]
293.15 K, x1 = 0.091 | 40.5
293.15 K, x1 = 0.111 | 48.81
293.15 K, x1 = 0.143 | 51.72
298.15 K, x1 = 0.125 | 38.64
303.15 K, x1 = 0.125 | 30.08
308.15 K, x1 = 0.125 | 23.81
313.15 K, x1 = 0.091 | 16.33
313.15 K, x1 = 0.111 | 20.81
313.15 K, x1 = 0.125 | 19.3
313.15 K, x1 = 0.143 | 21.41
318.15 K, x1 = 0.125 | 15.79
323.15 K, x1 = 0.125 | 12.88

O=Cc1ccccc1 + CCc1ccccc1
viscosity [mPa·s], 101 kPa
Conditions | x1 = 0.1197 | x1 = 0.2343 | x1 = 0.3441 | x1 = 0.4494 | x1 = 0.5504 | x1 = 0.6474 | x1 = 0.7407 | x1 = 0.8304 | x1 = 0.9168
303.15 K | 0.6517 | 0.704 | 0.7588 | 0.8174 | 0.882 | 0.9577 | 1.043 | 1.13 | 1.203
308.15 K | 0.6199 | 0.6713 | 0.7283 | 0.7882 | 0.8554 | 0.93 | 1.014 | 1.102 | 1.181
313.15 K | 0.584 | 0.6318 | 0.691 | 0.7573 | 0.8273 | 0.9007 | 0.9837 | 1.07 | 1.158

Cc1ccc(C)cc1 + CCCCO
Conditions | viscosity [mPa·s]
298.15 K, 101.33 kPa, x2 = 0.1504 | 0.636
298.15 K, 101.33 kPa, x2 = 0.2649 | 0.692
298.15 K, 101.33 kPa, x2 = 0.3971 | 0.797
298.15 K, 101.33 kPa, x2 = 0.5009 | 0.914
298.15 K, 101.33 kPa, x2 = 0.585 | 1.047
298.15 K, 101.33 kPa, x2 = 0.6932 | 1.275
298.15 K, 101.33 kPa, x2 = 0.7688 | 1.493
308.15 K, 101 kPa, x2 = 0.0495 | 0.551
308.15 K, 101 kPa, x2 = 0.1136 | 0.553
308.15 K, 101 kPa, x2 = 0.206 | 0.562
308.15 K, 101 kPa, x2 = 0.3224 | 0.592
308.15 K, 101 kPa, x2 = 0.4051 | 0.647
308.15 K, 101 kPa, x2 = 0.5098 | 0.724
308.15 K, 101 kPa, x2 = 0.6322 | 0.796
308.15 K, 101 kPa, x2 = 0.7241 | 0.937
308.15 K, 101 kPa, x2 = 0.8216 | 1.118
308.15 K, 101 kPa, x2 = 0.9035 | 1.327
308.15 K, 101 kPa, x2 = 0.9621 | 1.619

Fc1ccccc1 + O=CN1CCOCC1
viscosity [mPa·s], 101 kPa
Conditions | x2 = 0.0946 | x2 = 0.1904 | x2 = 0.2873 | x2 = 0.3854 | x2 = 0.4847 | x2 = 0.5853 | x2 = 0.687 | x2 = 0.79 | x2 = 0.8944
303.15 K | 0.72 | 0.957 | 1.245 | 1.595 | 2.028 | 2.579 | 3.265 | 4.113 | 5.175
308.15 K | 0.677 | 0.895 | 1.157 | 1.466 | 1.846 | 2.325 | 2.919 | 3.64 | 4.539
313.15 K | 0.641 | 0.845 | 1.079 | 1.361 | 1.711 | 2.139 | 2.669 | 3.314 | 4.111

CCCCCCCCCCCCO + CCCCCCCCCCCO
viscosity [mPa·s], 101.8 kPa
Conditions | x2 = 0.105 | x2 = 0.3165 | x2 = 0.5196 | x2 = 0.7165 | x2 = 0.9076
298.15 K | 16.69 | 16.05 | 15.53 | 15 | 14.51
308.15 K | 11.29 | 10.91 | 10.58 | 10.23 | 9.905
318.15 K | 7.895 | 7.633 | 7.418 | 7.19 | 6.977

O=[N+]([O-])[O-].O=[N+]([O-])[O-].[Sr+2] + O
viscosity [mPa·s], 100 kPa
Conditions | x1 = 0.004 | x1 = 0.009 | x1 = 0.02 | x1 = 0.04 | x1 = 0.05
298.15 K | 0.9435 | 1.029 | 1.226 | 1.628 | 2.52
323.15 K | 0.589 | 0.639 | 0.775 | 1.012 | 1.524

Cc1ccc(C)cc1 + CCCCCO
293.15 K, 101.33 kPa
Conditions | viscosity [mPa·s]
x2 = 0.1458 | 0.727
x2 = 0.2275 | 0.792
x2 = 0.2722 | 0.836
x2 = 0.3455 | 0.925
x2 = 0.4093 | 1.022
x2 = 0.4819 | 1.164
x2 = 0.5534 | 1.356
x2 = 0.6142 | 1.543
x2 = 0.7185 | 1.973
x2 = 0.7687 | 2.232
x2 = 0.8498 | 2.747
x2 = 0.9425 | 3.494

From the CheMixHub viscosity set
